Measured values reported in publication PMC7023232, “Polymer Cancerostatics Containing Cell-Penetrating Peptides: Internalization Efficacy Depends on Peptide Type and Spacer Length” (Pharmaceutics, 2020).
Like-named read-outs stand apart in the source and are kept apart here.

Experiments:
Format in all cases: cell-based, human
[1] = test system: HeLa cells; assay: Alamar Blue cell viability (cytotoxicity)
Protocol: Cytotoxicity of polymer–peptide conjugates was determined using Alamar Blue® cell viability reagent (Thermo Fischer Scientific, Czech Republic) in HeLa cells according to the manufacturer’s protocol. Cells were seeded into 96-well plates in 100 μL of DMEM 24 h prior to experiment at a density of 5 × 10^3 cells per well. […] […] Then the medium was replaced by 90 μL of fresh medium with 10 μL of Alamar Blue® reagent and incubated for the next 4 h in 5% CO2 at 37 °C. […] The fluorescence intensity was measured using a Synergy Neo plate reader (Bio-Tek, Prague, Czech Republic) with excitation at 550 nm and emission at 590 nm. Non-treated cells were used as a negative control and free pirarubicin as a positive control. All samples were measured in triplicate in three independent experiments. The half maximal inhibitory concentration value IC50 was expressed as a concentration of CPP ± SD and pirarubicin ± SD, respectively. […] In the case of drug bearing polymer conjugates, the concentration varied from 43.2 nM to 44.3 μM of pirarubicin.
Results were plotted as average ± standard deviation (SD). All statistical analysis was performed using GraphPad Prism 5.03. An ANOVA test was followed by Dunnett’s or Turkey’s test. A value of *** p < 0.001, ** p < 0.01, and * p < 0.05 was considered statistically significant. All IC50 (the concentrations of the CPP or drug reducing the cell viability to one half) values were obtained from calculations corresponding to fitting by logistic S-curves.

[2] = test system: HeLa cells; assay: Flow cytometry of cellular uptake of fluorescently labeled polymer–peptide conjugates (median fluorescence intensity relative to control polymer REF); details: for internalization efficiency compared with the control polymer: HeLa cells, flow cytometry, concentration and temperature not stated at this place (abstract); for uptake relative to control polymer at the highest concentration: highest concentration used; for cell penetration compared with control polymer (in words): any of the concentrations used, at 4 °C and at 37 °C
Protocol: The HeLa cell line (LGC Standards, Poland) was cultured in Dulbecco’s modified Eagle medium (DMEM) supplemented with 100 U of penicillin, 100 μg⋅mL^−1 streptomycin, and 10% fetal bovine serum in 25 cm^2 flasks. Cells were cultivated in a humidified incubator at 37 °C with 5% CO2. The chemicals were purchased from Life Technologies/Gibco, Prague, Czech Republic.
The HeLa cell line was incubated with fluorescently labeled polymer–peptide conjugates for 1 h at 4 °C and 37 °C. For measurement at 4 °C, HeLa cells were harvested with 0.05% trypsin (Thermo Fisher Scientific, Czech Republic) at 37 °C for 3 min. Subsequently, cells were washed with 0.5% bovine serum albumin in phosphate buffered saline (0.01 M) (BSA/PBS), pre-cooled for 15 min and incubated with fluorescently labeled polymer–peptide conjugates in the dark for 1 h at 4 °C. After incubation, the cells were washed once with BSA/PBS, centrifuged at 1500 rpm for 3 min and re-suspended in 1 μM Sytox Blue Dead Cell Stain (Thermo Fisher Scientific, Czech Republic) to distinguish live and dead cells. For measurement at 37 °C, HeLa cells were seeded 24 h prior to the experiment on 24-well plates at a density 1.5 × 10^5 cells per well. Polymer–peptide conjugates were then added together with fresh DMEM and incubated at 37 °C in 5% CO2 and humidified atmosphere. Subsequently, cells were washed with BSA/PBS, harvested with 0.05% trypsin at 37 °C for 3 min, transferred to tubes, centrifuged at 1500 rpm for 3 min, and re-suspended in PBS/BSA containing 1 μM Sytox Blue Dead Cell Stain (Thermo Fisher Scientific, Czech Republic). All measurements were acquired using a FACSVerse™ flow cytometer (Becton Dickinson Czechia, s.r.o., Prague, Czech Republic) and analyzed by FlowJo software version 10 (Tree Star Inc., Ashland, OR, USA); the median of fluorescence intensity was determined. The concentration of polymer conjugates was adjusted to the value corresponding to a final concentration of peptide 1000 μM. This stock solution was diluted with PBS to obtain all used concentrations. […] HeLa cells without a polymer were used as a negative control. All samples were measured in duplicates in two independent experiments.
The uptake of the polymer–peptide conjugates incubated with the cells was measured using flow cytometry.

[3] = test system: HeLa cells; assay: Laser scanning confocal microscopy of intracellular uptake and localization
Protocol: Laser scanning confocal microscopy (LSCM) was used to visualize the intracellular uptake of selected polymer conjugates. HeLa cells were seeded 24 h prior to an experiment (1.5 × 10^5 cells per well) to confocal chambers (1 μ-dishes providing a 35 mm^2 growth area with 500 μL cell culture medium) with four chambers in a 20 mm micro-well and a #1 cover glass (0.13–0.16 mm) (Bio-Port Europe, Prague, Czech Republic). Medium was replaced by fresh medium with dissolved polymer–peptide conjugates and added to confocal chamber and incubated either at 4 °C or at 37 °C for 1 h. After the incubation time, cells were washed twice with PBS and measured by confocal microscopy. Hoechst 33342 was used for visualization of cell nuclei (5 μg·mL^−1, Thermo Fischer Scientific, Czech Republic) and cell membranes were stained with CellMask™ Green (1 μg⋅mL^−1, Thermo Fisher Scientific, Czech Republic) for 1 h before imaging at 4 °C or 10 min at 37 °C. Observation of samples was performed by Olympus IX83 coupled with FV10-ASW software (Olympus, Prague, Czech Republic). The samples were scanned using the 60× oil objective Plan ApoN (1.42 numerical apertures). Dy633-labeled polymers were excited at 637 nm and emitted light was detected through a 650–750 nm filter. For the detection of Hoechst 33342 dye-stained nuclei, an excitation wavelength of 405 nm was used and emitted light was detected through a 420–500 nm filter. CellMask Green-stained cell membranes were excited at 488 nm and the emitted light was detected through a 500–600 nm filter. All samples were measured in duplicate in two independent experiments.
A confocal microscopy study was performed to support and extend the data obtained by flow cytometry. Confocal microscopy imaging was used to map localization of CPP conjugates. The polymer conjugates with the highest cell penetration activity, TAT12 and PEN12, were selected for the confocal microscopy experiments. Conjugate REF was used as a control. The polymers were incubated with HeLa cells for 1, 2, or 4 h at 4 or 37 °C.

[4] = 24 h incubation, Alamar Blue, Dy633-labeled conjugates, mean ± SD, triplicate in three independent experiments, for REF virtual CPP concentration of the same weight concentration, read-out: IC50 (concentration of the CPP reducing the cell viability to one half)
[5] = 4 °C (cells precooled 15 min), 50 μM of CPP, up to 4 h
[6] = 37 °C, 50 μM of CPP, 1, 2 or 4 h

COc1cccc2c1C(=O)c1c(O)c3c(c(O)c1C2=O)C[C@@](O)(C(=O)CO)C[C@@H]3O[C@H]1C[C@H](N)[C@H](O[C@@H]2CCCCO2)[C@H](C)O1 [Pir, Pirarubicin, reference compound]
IC50 ([1]; Homo sapiens, 24 h incubation, Alamar Blue, expressed as pirarubicin, mean ± SD, triplicate in three independent experiments, read-out: IC50 (concentration of the Pir reducing the cell viability to one half)): 1.03 ± 0.3 µg/mL

GRKKRRQRRR [P-T12-Pir, HPMA copolymer bearing pirarubicin via GFLG and TAT via dodeca(ethylene glycol) spacer]
IC50 lower compared with P-Pir conjugate without any CPP ([1]; 24 h incubation): more than two | IC50 (concentration of the Pir reducing the cell viability to one half) ([1]; 24 h incubation, Alamar Blue, expressed as pirarubicin, mean ± SD, triplicate in three independent experiments): 18.3 ± 6.2 µg/mL | IC50 ([1]; 24 h incubation, read-out: concentration of CPP present on the conjugate at IC50 value): ~20.7 µM | cytotoxicity (IC50 as pirarubicin) after longer incubation time ([1]; 72 h incubation, Alamar Blue): 11.1 ± 1.6 µg/mL

GRKKRRQRRR [TAT4]
IC50 [1, 4]: 95.3 ± 2.6 µM | internalization efficiency compared with the control polymer [2]: about 40 times | cell penetration level compared with REF ([2]; HeLa, 4 °C, 1 h, 1 μM of CPP): seven | enhanced cellular uptake (relative fluorescence intensity) compared to REF ([2]; HeLa, 37 °C, 1 h, 0.1 μM of CPP): 14 times

GRKKRRQRRR [TAT12]
cellular localization / internalization by confocal microscopy (in words) [3, 5]: partially localized even in the cytosol | cellular localization / internalization by confocal microscopy (in words) [3, 6]: localized in cytosol already after 1 h | presence of the polymer in the cell nuclei (in words) [3, 6]: negligible | penetration efficacy relative to spacer-free conjugate TAT0 ([2]; HeLa, 4 °C, 1 h, 50 μM of CPP): 2.8 times

PFVYLI [PF4]
increase in uptake relative to REF ([2]; HeLa, 4 °C (precooled cells), 1 h, median fluorescence intensity ratio to REF): up to 2 times | uptake relative to control polymer at the highest concentration ([2]; HeLa, 4 °C, 1 h): 1.8 times | uptake relative to control polymer at the highest concentration ([2]; HeLa, 37 °C, 1 h): 1.8 times

RRMKWKK [PEN4]
IC50 [1, 4]: 82.9 ± 4.8 µM | internalization efficiency compared with the control polymer [2]: ~15 times | effect of tetra(ethylene glycol) spacer on penetration compared with spacer-free PEN0 (in words) ([2]; HeLa, 4 °C, 1 h): not long enough to improve the penetration | uptake compared with TAT4 (in words) ([2]; HeLa, 4 °C, 1 h, 1 and 10 μM of CPP): slightly outperformed TAT4 | concentration dependence of relative uptake (in words) ([2]; HeLa, 4 °C, 1 h, 25 and 50 μM of CPP): did not exhibit any more improvement | relative increase of fluorescence intensity compared to REF, versus TAT4 (in words) ([2]; HeLa, 37 °C, 1 h, all measured concentrations): lower than in the case of TAT4

RRMKWKK [PEN12]
cellular localization / internalization by confocal microscopy (in words) [3, 5]: much less pronounced at 4 °C | cellular localization / internalization by confocal microscopy (in words) [3, 6]: lower cell internalization compared with TAT12 | penetration efficacy relative to shorter analog PEN4 ([2]; HeLa, 4 °C, 1 h, 25 μM of CPP): two

RYIRS [RY4]
cell penetration compared with control polymer (in words) ([2]; HeLa, 1 h): do not penetrate cells better than the control polymer

VPMLK [VP4]
cell penetration compared with control polymer (in words) ([2]; HeLa, 1 h): do not penetrate cells better than the control polymer

YARAAARQARA [YA4]
cell penetration compared with control polymer (in words) ([2]; HeLa, 1 h): do not penetrate cells better than the control polymer
